Test results from patent US10670605B2, “Cysteine reactive probes and uses thereof” (The Scripps Research Institute, priority 2015, dated 2020).

Columns and labels:
Experiment in all cases: Competitive isoTOP-ABPP in situ (fragment-treated cells)
Type in all cases: cell-based
Conditions in all cases: 200 μM, insitu
[1] = target: cysteines in MDA-MB-231 and Ramos cells (Homo sapiens, UniProt O60610)
[2] = target: T1, cysteines in MDA-MB-231 and Ramos cells (Homo sapiens, UniProt P49588)
T1 sequence (P49588 1-968): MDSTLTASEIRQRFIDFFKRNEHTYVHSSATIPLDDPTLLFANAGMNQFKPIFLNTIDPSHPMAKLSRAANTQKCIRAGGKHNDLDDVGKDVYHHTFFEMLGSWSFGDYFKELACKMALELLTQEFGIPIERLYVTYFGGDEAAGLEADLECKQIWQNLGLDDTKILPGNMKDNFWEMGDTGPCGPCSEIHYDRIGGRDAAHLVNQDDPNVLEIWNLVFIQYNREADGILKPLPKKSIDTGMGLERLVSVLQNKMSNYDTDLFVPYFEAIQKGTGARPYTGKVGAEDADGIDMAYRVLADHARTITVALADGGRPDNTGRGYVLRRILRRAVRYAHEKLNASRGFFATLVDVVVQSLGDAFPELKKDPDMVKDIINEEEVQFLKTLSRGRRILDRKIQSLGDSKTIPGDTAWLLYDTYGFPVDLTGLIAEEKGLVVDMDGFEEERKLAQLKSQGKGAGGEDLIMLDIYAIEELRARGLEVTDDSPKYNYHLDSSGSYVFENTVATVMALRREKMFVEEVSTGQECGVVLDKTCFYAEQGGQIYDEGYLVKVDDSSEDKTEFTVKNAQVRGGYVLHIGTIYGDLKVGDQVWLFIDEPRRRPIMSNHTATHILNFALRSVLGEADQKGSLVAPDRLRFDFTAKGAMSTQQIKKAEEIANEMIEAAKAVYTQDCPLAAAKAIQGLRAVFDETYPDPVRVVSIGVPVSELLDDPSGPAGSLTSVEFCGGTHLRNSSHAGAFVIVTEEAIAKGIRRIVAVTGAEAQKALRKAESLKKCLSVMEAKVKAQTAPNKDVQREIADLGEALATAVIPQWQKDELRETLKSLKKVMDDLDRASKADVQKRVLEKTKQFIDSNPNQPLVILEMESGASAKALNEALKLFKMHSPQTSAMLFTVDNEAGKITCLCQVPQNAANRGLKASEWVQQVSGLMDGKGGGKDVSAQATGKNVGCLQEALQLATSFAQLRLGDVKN

[3] = target: cysteines in MDA-MB-231 and Ramos cells (Homo sapiens, UniProt P62888)
[4] = target: T2, cysteines in MDA-MB-231 and Ramos cells (Homo sapiens, UniProt Q29RF7)
T2 sequence (Q29RF7 1-1337): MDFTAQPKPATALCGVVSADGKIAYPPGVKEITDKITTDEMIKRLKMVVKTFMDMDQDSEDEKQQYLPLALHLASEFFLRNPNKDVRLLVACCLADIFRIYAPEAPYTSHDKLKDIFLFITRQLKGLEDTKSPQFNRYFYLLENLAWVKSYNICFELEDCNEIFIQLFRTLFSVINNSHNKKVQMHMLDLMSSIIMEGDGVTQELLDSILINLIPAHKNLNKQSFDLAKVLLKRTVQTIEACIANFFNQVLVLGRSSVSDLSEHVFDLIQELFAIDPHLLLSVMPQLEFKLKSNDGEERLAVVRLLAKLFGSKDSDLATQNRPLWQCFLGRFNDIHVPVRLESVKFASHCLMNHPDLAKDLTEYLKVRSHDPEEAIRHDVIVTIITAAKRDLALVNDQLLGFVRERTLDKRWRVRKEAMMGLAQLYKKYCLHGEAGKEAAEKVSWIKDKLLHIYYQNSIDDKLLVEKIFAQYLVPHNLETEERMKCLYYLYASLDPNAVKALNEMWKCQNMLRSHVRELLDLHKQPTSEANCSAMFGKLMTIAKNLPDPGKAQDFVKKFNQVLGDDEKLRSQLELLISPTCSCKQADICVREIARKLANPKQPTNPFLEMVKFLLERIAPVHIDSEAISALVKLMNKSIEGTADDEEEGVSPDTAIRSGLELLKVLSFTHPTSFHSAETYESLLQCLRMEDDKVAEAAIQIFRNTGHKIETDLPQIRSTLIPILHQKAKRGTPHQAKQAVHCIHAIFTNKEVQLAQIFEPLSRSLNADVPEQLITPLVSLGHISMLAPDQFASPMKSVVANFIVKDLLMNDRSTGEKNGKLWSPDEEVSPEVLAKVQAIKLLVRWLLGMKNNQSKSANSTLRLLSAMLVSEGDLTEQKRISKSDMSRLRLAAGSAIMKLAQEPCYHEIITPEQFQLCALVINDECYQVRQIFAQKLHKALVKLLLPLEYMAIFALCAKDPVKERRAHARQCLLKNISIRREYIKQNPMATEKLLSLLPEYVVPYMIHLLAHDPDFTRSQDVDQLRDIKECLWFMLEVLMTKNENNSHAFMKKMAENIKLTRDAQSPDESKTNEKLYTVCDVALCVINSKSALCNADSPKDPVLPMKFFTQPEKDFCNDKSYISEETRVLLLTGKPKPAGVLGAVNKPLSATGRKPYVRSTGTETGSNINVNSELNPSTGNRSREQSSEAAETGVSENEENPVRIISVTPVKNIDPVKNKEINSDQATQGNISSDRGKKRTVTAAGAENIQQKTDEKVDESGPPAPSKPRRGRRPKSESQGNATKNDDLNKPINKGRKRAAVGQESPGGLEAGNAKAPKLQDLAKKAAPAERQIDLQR

[5] = target: cysteines in MDA-MB-231 and Ramos cells (Homo sapiens, UniProt Q9BXW7)
Chain of cysteines in MDA-MB-231 and Ramos cells (Homo sapiens, UniProt Q9BXW7) (Q9BXW7 24-423): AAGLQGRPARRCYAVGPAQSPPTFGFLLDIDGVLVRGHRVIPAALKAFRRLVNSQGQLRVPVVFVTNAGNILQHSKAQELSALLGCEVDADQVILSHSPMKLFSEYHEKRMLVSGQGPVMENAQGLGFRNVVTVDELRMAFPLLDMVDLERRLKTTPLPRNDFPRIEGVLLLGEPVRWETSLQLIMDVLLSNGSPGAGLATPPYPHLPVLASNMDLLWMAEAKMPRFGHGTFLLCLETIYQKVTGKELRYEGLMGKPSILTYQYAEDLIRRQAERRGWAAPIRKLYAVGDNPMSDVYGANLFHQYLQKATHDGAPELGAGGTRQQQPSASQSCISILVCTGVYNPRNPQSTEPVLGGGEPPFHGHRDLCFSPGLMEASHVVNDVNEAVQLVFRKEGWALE

[6] = target: T3, cysteines in MDA-MB-231 and Ramos cells (Homo sapiens, UniProt Q9NQR4)
T3 sequence (Q9NQR4 1-276): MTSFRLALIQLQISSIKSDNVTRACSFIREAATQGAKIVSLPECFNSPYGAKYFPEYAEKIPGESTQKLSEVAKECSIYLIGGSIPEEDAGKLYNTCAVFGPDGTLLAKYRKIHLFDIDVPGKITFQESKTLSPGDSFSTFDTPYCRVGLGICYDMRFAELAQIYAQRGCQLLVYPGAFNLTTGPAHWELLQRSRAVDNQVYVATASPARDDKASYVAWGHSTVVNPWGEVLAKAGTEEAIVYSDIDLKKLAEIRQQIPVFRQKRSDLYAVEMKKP

Chain of cysteines in MDA-MB-231 and Ramos cells (Homo sapiens, UniProt O60610) (O60610 whole entry): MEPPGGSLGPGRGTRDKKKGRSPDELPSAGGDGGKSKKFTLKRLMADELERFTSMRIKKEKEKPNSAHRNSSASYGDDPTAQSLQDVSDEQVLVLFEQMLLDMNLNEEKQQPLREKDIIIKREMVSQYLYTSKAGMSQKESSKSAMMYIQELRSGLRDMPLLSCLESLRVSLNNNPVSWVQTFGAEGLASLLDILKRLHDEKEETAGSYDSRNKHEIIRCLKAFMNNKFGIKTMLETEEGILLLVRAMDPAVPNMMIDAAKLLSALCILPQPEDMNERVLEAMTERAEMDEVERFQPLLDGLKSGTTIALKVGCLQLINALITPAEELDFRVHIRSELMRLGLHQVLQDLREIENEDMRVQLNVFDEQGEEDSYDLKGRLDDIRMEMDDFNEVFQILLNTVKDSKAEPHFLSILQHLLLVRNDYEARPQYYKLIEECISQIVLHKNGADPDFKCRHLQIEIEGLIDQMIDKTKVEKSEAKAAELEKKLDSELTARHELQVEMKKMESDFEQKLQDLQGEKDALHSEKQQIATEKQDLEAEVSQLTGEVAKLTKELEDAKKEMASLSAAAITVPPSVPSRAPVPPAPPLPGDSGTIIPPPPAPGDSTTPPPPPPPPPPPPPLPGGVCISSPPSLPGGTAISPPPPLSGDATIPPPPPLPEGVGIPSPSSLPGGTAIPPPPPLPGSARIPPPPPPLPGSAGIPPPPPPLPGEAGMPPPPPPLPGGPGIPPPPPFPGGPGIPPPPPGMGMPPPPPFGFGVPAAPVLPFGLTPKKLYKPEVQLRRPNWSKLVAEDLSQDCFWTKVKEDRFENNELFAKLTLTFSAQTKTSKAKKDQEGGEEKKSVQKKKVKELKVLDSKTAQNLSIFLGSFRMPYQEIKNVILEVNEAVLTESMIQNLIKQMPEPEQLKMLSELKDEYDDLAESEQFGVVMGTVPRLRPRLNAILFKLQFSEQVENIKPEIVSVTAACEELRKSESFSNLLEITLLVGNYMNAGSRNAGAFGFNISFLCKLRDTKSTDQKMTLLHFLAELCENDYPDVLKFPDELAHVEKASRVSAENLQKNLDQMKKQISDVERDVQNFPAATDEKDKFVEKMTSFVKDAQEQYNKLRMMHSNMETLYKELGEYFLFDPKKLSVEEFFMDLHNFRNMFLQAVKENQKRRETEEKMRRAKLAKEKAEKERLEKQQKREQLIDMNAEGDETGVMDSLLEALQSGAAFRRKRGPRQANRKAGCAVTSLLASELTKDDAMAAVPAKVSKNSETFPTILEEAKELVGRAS

Row | Compound | isoTOP-ABPP ratio O60610_C1227 [1]; 231 | isoTOP-ABPP ratio O60610_C1227 ([1]; ramos) | isoTOP-ABPP ratio P49588_C773 [2]; 231 | isoTOP-ABPP ratio P49588_C773 ([2]; ramos) | isoTOP-ABPP ratio P62888_C92 [3]; 231 | isoTOP-ABPP ratio P62888_C92 ([3]; ramos) | isoTOP-ABPP ratio, cysteine Q29RF7_C532 ([4]; ramos) | isoTOP-ABPP ratio Q9BXW7_C392 [5]; 231 | isoTOP-ABPP ratio Q9NQR4_C153 [6]; 231 | isoTOP-ABPP ratio Q9NQR4_C153 ([6]; ramos) | isoTOP-ABPP ratio, cysteine Q29RF7_C242 [4]; 231 | isoTOP-ABPP ratio Q29RF7_C242 [4]; 231 | isoTOP-ABPP ratio Q9BXW7_C392 ([5]; ramos) | isoTOP-ABPP ratio Q29RF7_C532 [4]; 231 | isoTOP-ABPP ratio Q29RF7_C532 ([4]; ramos)
1 | O=C(CCl)NCCc1c[nH]c2ccccc12 [compound 13] | 0.7 | 0.9 | 0.8 | 1.1 | 0.8 | 2.0 | 2.0 | 2.0 | 6.2 | 12.2 |  |  |  |  | 
2 | O=C(CCl)NC12CC3CC(CC(C3)C1)C2 [compound 21] | 20.0 |  | 1.1 |  | 0.9 |  |  | 1.6 | 0.9 |  | 0.9 |  |  |  | 
3 | CC(C)CCOCCNC(=O)CCl [compound 27] | 0.5 |  | 0.6 |  | 0.6 |  |  | 1.3 | 1.3 |  |  | 0.9 |  |  | 
4 | COc1ccccc1OCCNC(=O)CCl [compound 28] |  |  |  |  | 0.9 |  |  | 1.0 |  |  |  | 1.0 |  |  | 
5 | O=C(CCl)N1CCN(CC(=O)N2CCOCC2)CC1 [compound 29] |  | 1.6 |  | 1.1 |  | 2.0 |  |  |  |  |  |  | 1.5 |  | 
6 | C=CC(=O)N(Cc1cccnc1)c1cc(C(F)(F)F)cc(C(F)(F)F)c1 [compound 31] | 0.6 | 1.2 |  | 1.2 |  |  |  |  | 0.6 | 1.4 |  |  |  | 5.1 | 8.1
7 | CC1CCc2ccccc2N1C(=O)CCl (stereo not drawn) [compound 45] | 3.0 |  | 10.1 |  | 2.2 |  |  | 4.9 | 2.0 |  |  |  |  |  | 
8 | O=C(CCl)Nc1cccc2ncccc12 [compound 51] |  |  |  |  | 0.9 |  |  | 1.1 | 0.6 |  |  | 1.8 |  |  | 
